Results published in PubChem BioAssay (NCI).
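Briefly, cells in 96-well plates were exposed to five compound concentrations for 48 h, and endpoints were estimated by linear interpolation. GI50 = concentration required for 50% inhibition of growth. TGI denotes the concentration required for complete inhibition of growth.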

Experiments:
Experiment in all cases: DTP human tumour cell line panel, 48 h
MALME-3M melanoma = test system: MALME-3M melanoma
HS 578T breast = test system: HS 578T breast
NCI-H23 lung = test system: NCI-H23 lung
CAKI-1 renal = test system: CAKI-1 renal
SK-MEL-2 melanoma = test system: SK-MEL-2 melanoma
HL-60(TB) leukemia = test system: HL-60(TB) leukemia
HCC-2998 colon = test system: HCC-2998 colon
MDA-MB-231 breast = test system: MDA-MB-231 breast
MOLT-4 leukemia = test system: MOLT-4 leukemia
SNB-75 CNS = test system: SNB-75 CNS

| Compound | GI50 (MALME-3M melanoma) | TGI (MALME-3M melanoma) | GI50 (HS 578T breast) | TGI (HS 578T breast) | GI50 (NCI-H23 lung) | TGI (NCI-H23 lung) | GI50 (CAKI-1 renal) | TGI (CAKI-1 renal) | GI50 (SK-MEL-2 melanoma) | TGI (SK-MEL-2 melanoma) | GI50 (HL-60(TB) leukemia) | TGI (HL-60(TB) leukemia) | GI50 (HCC-2998 colon) | TGI (HCC-2998 colon) | GI50 (MDA-MB-231 breast) | TGI (MDA-MB-231 breast) | GI50 (MOLT-4 leukemia) | TGI (MOLT-4 leukemia) | GI50 (SNB-75 CNS) | TGI (SNB-75 CNS) |
| --- | --- | --- | --- | --- | --- | --- | --- | --- | --- | --- | --- | --- | --- | --- | --- | --- | --- | --- | --- | --- |
| Nc1ncc(-c2ccc3ncnc(N4CCc5ccc(Cl)cc54)c3c2)cc1C(F)(F)F | 0.919 µM | 6.22 µM | 0.326 µM | 3.05 µM | 3.79 µM | 29.4 µM | 0.457 µM | 5.56 µM | 5.12 µM | 23.5 µM | 0.723 µM | > 100 µM | 3.43 µM | > 100 µM | 1.29 µM | 12.4 µM | 1.63 µM | > 100 µM | 0.113 µM | 1.64 µM |
| C#C[C@@]1(O)[C@@H](CO)O[C@@H](n2cc(C(F)(F)F)c3c(N)ncnc32)[C@@H]1O | 1.19 µM | 4.84 µM | 1.26 µM | 6.23 µM | 0.651 µM | 8.19 µM | 2.19 µM | > 100 µM | 0.913 µM | 2.85 µM | 0.278 µM | 0.984 µM | 0.423 µM | 4.24 µM | 0.736 µM | > 100 µM | 0.29 µM | 1.33 µM | 1.12 µM | 3.42 µM |
| Fc1ccc(-c2nn3ccccc3c2-c2ccncc2)cc1 | > 25 µM | > 25 µM | > 25 µM | > 25 µM | > 25 µM | > 25 µM | 11.8 µM | > 25 µM | > 25 µM | > 25 µM | > 25 µM | > 25 µM | > 25 µM | > 25 µM | > 25 µM | > 25 µM | > 25 µM | > 25 µM | > 19.7 µM | > 25 µM |
| CCOc1ccc(C(C[N+](=O)[O-])Sc2ccccc2N)cc1 (stereo not given) | 12.3 µM | 24.7 µM | 3.1 µM | 18.3 µM | 8.71 µM | 21.6 µM | 12.9 µM | 25.6 µM | 16.1 µM | 31.2 µM | 2.27 µM | 6.59 µM | 1.77 µM | 3.25 µM | 2.43 µM | 7.84 µM | 3.73 µM | 16.9 µM | 2.8 µM | 17.4 µM |
| COc1ccc2c(c1)CCc1cc(OC)ccc1/[N+]([O-])=[N+]\2[O-] | – | 38.5 µM | – | > 59.8 µM | – | 52.4 µM | – | 34 µM | – | 43.8 µM | – | 27.6 µM | – | 58.2 µM | – | 37 µM | – | 20.3 µM | – | 33.3 µM |
| Oc1[nH]c2ccccc2c1/C=c1/ccc2c(c1)N=C(c1ccc(C(F)(F)F)cc1)N=2 | 2.9 µM | 9.23 µM | 3.09 µM | 12.7 µM | 3.39 µM | 15.7 µM | 3.11 µM | 13.6 µM | 5.08 µM | 15.3 µM | 2.26 µM | 5.27 µM | 3.77 µM | 16.2 µM | 2.04 µM | 14 µM | 1.67 µM | 3.94 µM | 2.79 µM | 12.9 µM |
| COc1ccc(C(=O)c2cc3c(N)c(C(=O)Nc4cccc(Br)c4C)sc3nc2C)cc1 | 0.0542 µM | > 100 µM | 0.082 µM | > 100 µM | 0.354 µM | > 100 µM | 0.0562 µM | > 100 µM | 1.54 µM | > 100 µM | 0.0282 µM | 0.0954 µM | 0.302 µM | > 100 µM | 0.13 µM | 17.3 µM | 0.109 µM | > 100 µM | 0.0405 µM | > 100 µM |
